Laboratory results from ChEMBL document CHEMBL5244218, “Quinolone derivatives and their activities against methicillin-resistant Staphylococcus aureus (MRSA)” (Eur J Med Chem, 2018).
Converted amounts (≈) assume the structure as drawn.

What was measured:
Staphylococcus aureus [1] = test: Antimicrobial activity against methicillin-resistant Staphylococcus aureus MR101 Mu50 measured after 18 hrs by microplate dilution method; type: functional
Staphylococcus aureus [2] = test: Antibacterial activity against methicillin-resistant Staphylococcus aureus infected in mouse model assessed as reduction in log10CFU in lungs (reference value: 8.47 log10CFU); type: functional
Staphylococcus aureus [3] = test: Antibacterial activity against methicillin-resistant Staphylococcus aureus infected in mouse model assessed as increase in survival rate relative to control; type: functional
[4] = Permeability coefficient of compound; type: ADME; conditions: not told; read-out: Kp (converted)
Staphylococcus aureus [5] = test: Antimicrobial activity against methicillin-resistant Staphylococcus aureus assessed as inhibition of microbial growth at 15.63 ug/ml relative to control; type: functional; set-up: scale not given: the % may be the effect or the level left; conditions: dose 15.63 µg/ml
Staphylococcus aureus [6] = test: Antimicrobial activity against methicillin-resistant Staphylococcus aureus; type: functional, organism-based
[7] = Cytotoxicity against African green monkey Vero cells; type: toxicity, cell-based; conditions: chlorocebus sabaeus
Staphylococcus aureus [8] = test: Antimicrobial activity against methicillin-resistant Staphylococcus aureus assessed as inhibition of bacterial growth at 0.5 ug/ml relative to control; type: functional; set-up: scale not given: the % may be the effect or the level left; conditions: dose 0.5 µg/ml
Staphylococcus aureus [9] = test: Antimicrobial activity against fluoroquinolone-resistant Staphylococcus aureus assessed as inhibition of bacterial growth at 0.5 ug/ml relative to control; type: functional; set-up: scale not given: the % may be the effect or the level left; conditions: dose 0.5 µg/ml
Staphylococcus aureus [10] = test: Antimicrobial activity against methicillin-resistant Staphylococcus aureus assessed as inhibition of bacterial growth by agar dilution method; type: functional
Staphylococcus aureus [11] = test: Antimicrobial activity against community acquired methicillin-resistant Staphylococcus aureus incubated for 24 hrs by CLSI protocol based method; type: functional
Staphylococcus aureus [12] = test: Antimicrobial activity against hospital acquired methicillin-resistant Staphylococcus aureus incubated for 24 hrs by CLSI protocol based method; type: functional

Question: For CC(=O)N[C@@H]1[C@H](Oc2c3cc4cc2Oc2ccc(cc2Cl)[C@@H](O[C@@H]2O[C@@H](CO)[C@@H](O)[C@H](O)[C@@H]2NC(C)=O)[C@@H]2NC(=O)[C@H](NC(=O)[C@@H]4NC(=O)[C@H]4NC(=O)[C@@H](Cc5ccc(c(Cl)c5)O3)NC(=O)[C@H](N)c3ccc(O)c(c3)Oc3cc(O)cc4c3)c3ccc(O)c(c3)-c3c(O[C@H]4O[C@H](CO)[C@@H](O)[C@@H](O)[C@@H]4O)cc(O)cc3[C@@H](C(=O)O)NC2=O)O[C@@H](CO)[C@@H](O)[C@@H]1O, which MIC (Staphylococcus aureus [1]) is on record?
Answer: 0.5 µg/mL (≈ 0.283 µM)

Question: What about the Activity (Staphylococcus aureus [2]) of the same compound?
Answer: 7.36 log10CFU

Question: What about the Activity (Staphylococcus aureus [3]) of the same compound?
Answer: 45%

Question: Which results are given for CN[C@H](CC(C)C)C(=O)N[C@H]1C(=O)N[C@@H](CC(N)=O)C(=O)N[C@H]2C(=O)N[C@H]3C(=O)N[C@H](C(=O)N[C@H](C(=O)O)c4cc(O)cc(O)c4-c4cc3ccc4O)[C@H](O)c3ccc(c(Cl)c3)Oc3cc2cc(c3O[C@@H]2O[C@H](CO)[C@@H](O)[C@H](O)[C@H]2O[C@H]2C[C@](C)(N)[C@H](O)[C@H](C)O2)Oc2ccc(cc2Cl)[C@H]1O [VANCOMYCIN]?
Answer: Activity (Staphylococcus aureus [2]): 7.99 log10CFU; Activity (Staphylococcus aureus [3]): 45%

Question: Which results are given for CCOC(=O)c1cn(C2CC2)c2cc(N3CCNCC3)ccc2c1=O?
Answer: Papp [4]: 0.106 ×10⁻⁶ cm/s; Activity (Staphylococcus aureus [5]): 80%

Question: Which results are given for CO/N=C1\CCN(c2nc3c(cc2F)c(=O)c(C(=O)O)cn3C2CC2)CC1(C)CN (stereo unspecified)?
Answer: MIC (Staphylococcus aureus [6]): 8 µg/mL (≈ 19.2 µM); CC50 [7]: 177 µg/mL (≈ 423 µM)

Question: Which Activity (Staphylococcus aureus [8]) does the source give for COc1c(N2CC[C@@H](C3(C)CC3)C2)c(F)cc2c(=O)c(C(=O)O)cn([C@@H]3C[C@@H]3F)c12 here?
Answer: 90%

Question: And the Activity (Staphylococcus aureus [9])?
Answer: 90%

Question: With C[C@H]1CCc2c(N3CCC(O)CC3)c(F)cc3c(=O)c(C(=O)O)cn1c23.N=C(N)NCCC[C@H](N)C(=O)O.O.O.O.O as the compound, how does the MIC (Staphylococcus aureus [10]) read?
Answer: 1 µg/mL

Question: For Cc1c(N2C[C@@H](F)[C@@H](C3(C)CC3)C2)c(F)c(N)c2c(=O)c(C(=O)O)cn([C@@H]3C[C@@H]3F)c12, which MIC (Staphylococcus aureus [1]) is on record?
Answer: 0.125 µg/mL (≈ 0.287 µM)

Question: And the Activity (Staphylococcus aureus [2])?
Answer: 6.33 log10CFU

Question: And the Activity (Staphylococcus aureus [3])?
Answer: 90%

Question: Which results are given for Cc1c(N2CC(NC(C)C)C2)c(F)cc2c(=O)c(C(=O)O)cn(-c3nc(N)c(F)cc3F)c12?
Answer: MIC90 (Staphylococcus aureus [11]): 0.06 µg/mL (≈ 0.13 µM); MIC90 (Staphylococcus aureus [12]): 0.06 µg/mL (≈ 0.13 µM)

Question: Which Papp [4] does the source give for CCCOC(=O)c1cn(C2CC2)c2cc(N3CCNCC3)ccc2c1=O here?
Answer: 0.195 ×10⁻⁶ cm/s

Question: What about the Activity (Staphylococcus aureus [5]) of the same compound?
Answer: 80%

Question: Which Papp [4] does the source give for COC(=O)c1cn(C2CC2)c2cc(N3CCNCC3)ccc2c1=O here?
Answer: 0.00797 ×10⁻⁶ cm/s

Question: What about the Activity (Staphylococcus aureus [5]) of the same compound?
Answer: 80%
